Results as given in patent publication US20080057529A1, “Method for Identifying Histone Deacetylase Inhibitors” (priority 2003, published 2008).

Columns and labels:
Type in all cases: cell-based, human
p21 minimal promoter [1] = experiment: Transient transfection of HeLa cells with p21m-BLA reporter plasmid, Bla staining (blue cells)
Procedure: (§1) The p21m-BLA reporter plasmid was tested in transient transfection experiments of HeLa cells to evaluate the responsiveness of the minimal p21 promoter and the Bla reporter system to known HDAC inhibitors. In the first two transfection experiments, HeLa cells were transfected with 1 or 2 μg of Bla reporter plasmid containing either p21 minimal promoter (p21m-BLA) or CMV promoter (CMV-BLA) and 0.1 μg of pCMV-Luc or pRSV-Luc control plasmids. Different DNA-FUGENE transfection reagent ratios were tested (FUGENE is available from Roche Applied Science, Indianapolis, Ind.). […] Data are summarized below in Tables 1 and 2.
(§2) The percentage of β-lactamase-positive cells increased with time independent of the presence of HDAC inhibitors and was constantly higher with p21m-BLA than with pCMV-BLA.
(§3) In light of the above, the lack of apparent Bla activation in the above transfection experiments might have been due to the high sensitivity of the method. Therefore, transient transfections in which an accurate titration of the reporter plasmid DNA were performed. The titration of the reporter plasmid included using amounts lower than was used above. […] The transient transfections were repeated and the result confirmed (Table 7).

CMV promoter = experiment: Transient transfection of HeLa cells with CMV-BLA (pCMV-BLA) reporter plasmid, Bla staining (blue cells)
Procedure: as §1, §2, §3

p21 minimal promoter [2] = experiment: Transient transfection of HeLa cells with p21m-SEAP reporter plasmid, SEAP activity; conditions: Apicidin 1 μM, TSA 300 nM; for SEAP (10 min) / SEAP norm-bckg/RLU norm: Table 5
Procedure: To determine whether the p21 minimal promoter was responsive to HDAC inhibitors, a reporter plasmid containing the secreted alkaline phosphatase gene (SEAP) operably linked to the p21 minimal promoter (−182 through +25), pcDNA3-21m-SEAP, was tested in transient transfection experiments of HeLa cells. […] All data summarized in Tables 4 through 7 were obtained by normalizing the total amount of transfected DNA to 2.1 μg using a promoterless plasmid.

p21 minimal promoter [3] = experiment: Fluorometric β-lactamase activity assay in stable HeLa clone 1.17 (p21m-BLA)
Procedure: All clones were screened for the presence of stably and functional integrated copies of the p21m-BLA reporter gene transcription cassette by performing a fluorometric β-lactamase activity assay after treatment with the HDAC inhibitor Apicidin at a concentration of 1 μM (saturating dose representing 100% of Bla gene activation, i.e., 100% of HDAC inhibition). A 100 μL aliquot of cells for each stable transformant in complete DMEM was plated into a well of a 96 well plate at about 36,000 cells per well for treatment with 1 μM Apicidin (saturating dose) and a 100 μL aliquot of cells was plated into a well of a 96 well plate at 24,000 cells per well for treatment with DMSO (vehicle control). […] After 4 hours, 25 μL of complete DMEM containing Apicidin at 5× final concentration or DMSO (5%) was added to each of the wells. The cells were then grown at 37° C., 5% CO2 for about 12 to 16 hours. Afterwards, the medium was removed and 100 μL of DMEM without serum and 25 μL of FRET labeled CCF2-AM Bla substrate diluted in the appropriate buffer according to the manufacturer recommendations were each added to the cells to give a final concentration of 1 μM CCF2-AM.

endogenous p21 = experiment: Induction of endogenous p21 in HeLa cells, immunoblot; conditions: 13 hour treatment, immunoblot densitometry, read-out: Endogenous p2 EC50
Procedure: Induction of endogenous p21 and acetylation of core histones (inhibition of HDAC activity) was as follows. Dose-response experiments were performed in HeLa cells with different classes of known HDAC inhibitors. […] An α-tubulin-specific antibody (Sigma, St. Louis, Mo.; catalog number: T9026) was used as an internal standard. Quantitative data were obtained by densitometric analysis of X-ray films and were normalized for the internal standard values.

HeLa cells = experiment: Cell death in transiently transfected HeLa cells
Procedure: as §1, §2

## CC(/C=C/C(=O)NO)=C\[C@@H](C)C(=O)c1ccc(N(C)C)cc1 [TSA, Trichostatin A]
p21 minimal promoter [1]; Table 1, 400 nM, 12 hours induction, 1 μg p21m-BLA + 3 μL F
  % Blue cells: 1%
p21 minimal promoter [1]; Table 1, 400 nM, 12 hours induction, 1 μg p21m-BLA + 5 μL F
  % Blue cells: <1%
p21 minimal promoter [1]; Table 1, 400 nM, 12 hours induction, 2 μg p21m-BLA + 6 μL F
  % Blue cells: 1%
p21 minimal promoter [1]; Table 1, 400 nM, 12 hours induction, 2 μg p21m-BLA + 10 μL F
  % Blue cells: <1%
p21 minimal promoter [1]; Table 2, 400 nM, 12 hours induction, 1 μg p21m-BLA + 3 μL F
  % Blue cells: 5%
p21 minimal promoter [1]; Table 2, 400 nM, 12 hours induction, 2 μg p21m-BLA + 6 μL F
  % Blue cells: 5%
p21 minimal promoter [1]; Table 2, 400 nM, 12 hours, 1 μg p21m-BLA + 3 μL F + CMV-luc
  % Blue cells: 4%
p21 minimal promoter [1]; Table 2, 400 nM, 12 hours, 1 μg p21m-BLA + 3 μL F + RSV-luc
  % Blue cells: 5%
p21 minimal promoter [1]; Table 2, 400 nM, 12 hours, 2 μg p21BLA + 6 μL F + CMV-luc
  % Blue cells: 4%
p21 minimal promoter [1]; Table 2, 400 nM, 12 hours, 2 μg p21m-BLA + 6 μL F + RSV-luc
  % Blue cells: 4%
p21 minimal promoter [1]; Table 3, 2 μg p21m-BLA + 0.1 μg pCMV-Luc, 6 hr treatment, TSA 300 nM, Apicidin 1 μM
  % Blue cells: 2-3%
p21 minimal promoter [1]; Table 3, 2 μg p21m-BLA + 0.1 μg pCMV-Luc, 12 hr treatment, TSA 300 nM, Apicidin 1 μM
  % Blue cells: 10%
p21 minimal promoter [1]; Table 3, 2 μg p21m-BLA + 0.1 μg pCMV-Luc, 24 hr treatment, TSA 300 nM, Apicidin 1 μM
  % Blue cells: 10%
CMV promoter; Table 1, 400 nM, 12 hours induction, 1 μg CMV-BLA + 3 μL F
  % Blue cells: 5%
CMV promoter; Table 1, 400 nM, 12 hours induction, 2 μg CMV-BLA + 6 μL F
  % Blue cells: 15-20%
CMV promoter; Table 2, 400 nM, 12 hours induction, 1 μg CMV-BLA + 3 μL F
  % Blue cells: 5%
CMV promoter; Table 2, 400 nM, 12 hours induction, 2 μg CMV-BLA + 6 μL F
  % Blue cells: 5%
CMV promoter; Table 2, 400 nM, 12 hours, 1 μg CMV-BLA + 3 μL F + CMV-luc
  % Blue cells: 5%
CMV promoter; Table 2, 400 nM, 12 hours, 1 μg CMV-BLA + 3 μL F + RSV-luc
  % Blue cells: 7%
CMV promoter; Table 2, 400 nM, 12 hours, 2 μg CMV-BLA + 6 μL F + CMV-luc
  % Blue cells: 7%
CMV promoter; Table 2, 400 nM, 12 hours, 2 μg CMV-BLA + 6 μL F + RSV-luc
  % Blue cells: 7%
CMV promoter; Table 3, 2 μg pCMV-BLA + 0.1 μg pCMV-Luc, 12 hr treatment, TSA 300 nM, Apicidin 1 μM
  % Blue cells: 4-5%
CMV promoter; Table 3, 2 μg pCMV-BLA + 0.1 μg pCMV-Luc, 24 hr treatment, TSA 300 nM, Apicidin 1 μM
  % Blue cells: 15%
p21 minimal promoter [2]; p21m-SEAP promoter titration in HeLa
  induction of SEAP (maximum): up to 26 fold
p21 minimal promoter [2]; P21m-SEAP 0 μg DNA (total DNA 2.1 μg)
  SEAP (10 min): 2313
p21 minimal promoter [2]; P21m-SEAP 0.1 μg DNA
  SEAP norm-bckg/RLU norm: 6,558.72
p21 minimal promoter [2]; P21m-SEAP 0.1 μg DNA (total DNA 2.1 μg)
  SEAP (10 min): 4405
p21 minimal promoter [2]; P21m-SEAP 0.2 μg DNA
  SEAP norm-bckg/RLU norm: 11,855.92
p21 minimal promoter [2]; P21m-SEAP 0.2 μg DNA (total DNA 2.1 μg)
  SEAP (10 min): 9328
p21 minimal promoter [2]; P21m-SEAP 0.5 μg DNA
  SEAP norm-bckg/RLU norm: 25,471.82
p21 minimal promoter [2]; P21m-SEAP 0.5 μg DNA (total DNA 2.1 μg)
  SEAP (10 min): 15743
p21 minimal promoter [2]; P21m-SEAP 1 μg DNA
  SEAP norm-bckg/RLU norm: 108,713.07
p21 minimal promoter [2]; P21m-SEAP 1 μg DNA (total DNA 2.1 μg)
  SEAP (10 min): 50626
p21 minimal promoter [2]; P21m-SEAP 2 μg DNA
  SEAP norm-bckg/RLU norm: 201,678.57
p21 minimal promoter [2]; P21m-SEAP 2 μg DNA (total DNA 2.1 μg)
  SEAP (10 min): 109998
p21 minimal promoter [3]; clone 1.17, 600 nM for 13 hr, then 7 days in culture, DMSO-treated samples
  reversion of Bla induction after FACS sorting: Complete reversion
p21 minimal promoter [3]; clone 1.17, 300 or 600 nM for 13 hours, 48 hours after removal
  reversibility of induction of BlaM transcription: complete shut down of β-lactamase activity
p21 minimal promoter [3]; clone 1.17, about 13 hours treatment, means of 3 to 4 independent experiments, read-out: p21m-Bla EC50
  EC50: 0.09 µM
Endogenous p21
  EC50: 0.19 µM
HeLa cells; 400 nM, 12 hours induction, transfected HeLa cells, both experiments
  cells dead after treatment: approximately 50%
HeLa cells; 12 and 24 hours, TSA 300 nM vs Apicidin 1 μM
  cell death at longer incubation times, compared with Apicidin: higher fraction of cells died
HeLa cells; after 6 hours, TSA 300 nM, Apicidin 1 μM, transfected HeLa cells
  Cell-death: not visible
